Results as given in US6303619A, “Meta-substituted acidic 8-phenylxanthine antagonists of A3 human adenosine receptors” (priority 1998, dated 2001).

Legend:
[1] = target: T1, human A2A adenosine receptor (Homo sapiens, UniProt P29274); assay: competition binding, recombinant human A2A adenosine receptor; settings: A3 versus A2A
T1 construct: expressed in transfected cells; host or cells: COS7 cells
Procedure: Monolayer cell culture of transfected COS7 cells were dissociated with 1 mM EDTA in phosphate buffered saline and resuspended in 5 mM Tris, pH7.6/10 mM MgCl2. The cells were subjected to freeze-thaw lysis and the suspension was homogenized in a glass dounce homogenizer. The membranes were pelleted, resuspended in binding buffer, 50 mM Tris pH 7.6/10 mM MgCl2 and incubated with adenosine deaminase before the binding assay. The binding assay was performed by incubating 50-100 Fg of membranes with increasing concentrations of radiolabeled adenosine agonists. Bound ligand was separated from free ligand by filtration on a SKATRON CELL […] equipped with a receptor binding filtermat. Bound radioactivity was measured by scintillation counting. Substances which bind to or enhance binding to expressed human adenosine receptors in COS and CHO cells can be identified in competition binding assays with radiolabeled adenosine or xanthine analogs. […] Protein concentration was determined by tie method of Bradford ((1976) Anal. Biochem. 72: 248-250). […] Bound radioactivity was measured by scintillation counting in READY SAFE SCINTILLATION COCKTAIL (BECKMAN). […] Non-specific binding was determined in the presence of 100 FM CPA. Bound radioactivity was measured by scintillation counting in READY SAFE LIQUID SCINTILLATION COCKTAIL (BECKMAN).

[2] = target: T2, human A2B adenosine receptor (Homo sapiens, UniProt P29275); assay: competition binding, recombinant human A2B adenosine receptor; settings: A3 versus A2B
T2 construct: expressed in transfected cells; host or cells: COS7 cells
T2 sequence (P29275 1-332): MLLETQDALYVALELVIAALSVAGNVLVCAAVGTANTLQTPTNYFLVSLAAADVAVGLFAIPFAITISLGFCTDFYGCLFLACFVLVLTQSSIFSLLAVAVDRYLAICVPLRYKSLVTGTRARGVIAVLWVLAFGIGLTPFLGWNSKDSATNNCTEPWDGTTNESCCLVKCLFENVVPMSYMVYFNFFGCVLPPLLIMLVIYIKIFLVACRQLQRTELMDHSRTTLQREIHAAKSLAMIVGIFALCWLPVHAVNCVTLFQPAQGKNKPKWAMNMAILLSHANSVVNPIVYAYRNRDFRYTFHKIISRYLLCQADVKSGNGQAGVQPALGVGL
Procedure: Monolayer cell culture of transfected COS7 cells were dissociated with 1 mM EDTA in phosphate buffered saline and resuspended in 5 mM Tris, pH7.6/10 mM MgCl2. The cells were subjected to freeze-thaw lysis and the suspension was homogenized in a glass dounce homogenizer. The membranes were pelleted, resuspended in binding buffer, 50 mM Tris pH 7.6/10 mM MgCl2 and incubated with adenosine deaminase before the binding assay. The binding assay was performed by incubating 50-100 Fg of membranes with increasing concentrations of radiolabeled adenosine agonists. Bound ligand was separated from free ligand by filtration on a SKATRON CELL […] equipped with a receptor binding filtermat. Bound radioactivity was measured by scintillation counting. Substances which bind to or enhance binding to expressed human adenosine receptors in COS and CHO cells can be identified in competition binding assays with radiolabeled adenosine or xanthine analogs. […] Membranes were prepared from transiently transfected COS7 cells 48 h after transfection or from G418-selected stably transfected CHO or HEK 293 cells. […] Protein concentration was determined by tie method of Bradford ((1976) Anal. Biochem. 72: 248-250). […] Bound radioactivity was measured by scintillation counting. Non-specific binding was measured on membranes prepared from non-transfected COS7 cells.

T1 sequence (P29274 whole entry): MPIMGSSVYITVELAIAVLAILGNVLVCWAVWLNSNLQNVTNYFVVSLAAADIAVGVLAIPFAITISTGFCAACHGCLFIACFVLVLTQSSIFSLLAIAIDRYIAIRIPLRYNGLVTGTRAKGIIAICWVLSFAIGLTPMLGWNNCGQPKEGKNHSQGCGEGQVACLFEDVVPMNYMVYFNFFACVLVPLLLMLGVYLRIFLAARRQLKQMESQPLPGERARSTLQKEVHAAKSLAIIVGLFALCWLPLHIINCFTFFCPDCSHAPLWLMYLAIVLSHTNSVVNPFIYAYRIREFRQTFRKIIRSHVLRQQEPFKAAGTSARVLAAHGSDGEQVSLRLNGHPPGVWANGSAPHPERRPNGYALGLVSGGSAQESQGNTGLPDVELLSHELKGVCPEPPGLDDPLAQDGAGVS

fold selectivity for A3 compared to human A2A [1]: 18 fold | fold selectivity for A3 compared to human A2B [2]: 70 fold
Structure (SMILES): CCCn1c(=O)c2[nH]c(-c3cccc(C=CC(=O)O)c3)nc2n(CCC)c1=O [BW-3911]
